The values that follow come from patent US9078442B2, “Herbicidally and fungicidally active 3-phenylisoxazoline-5-carboxamides and 3-phenylisoxazoline-5-thioamides” (BAYER INTELLECTUAL PROPERTY GMBH, priority 2011, dated 2015).

One test relates to Sphaerotheca fuliginea. Put plainly: In vivo test Sphaerotheca fuliginea (cucumber). Particulars: Sphaerotheca fuliginea on cucumber, evaluation 12 days after inoculation. On the procedure: Cucumber plants (cultivar: Vert petit de Paris) are cultivated in 50/50 peat pozzolan substrate at 20/23° C. and sprayed at the cotyledon stage with the active compound preparation given in Example A. After 24 hours, the plants are sprayed with a spore suspension of Sphaerotheca fuliginea (100 000 spores/ml).

Another test deals with Phytophthora infestans. Type of test: in vivo. Particulars: Phytophthora infestans on tomato, application rate 1200 g/ha, evaluation 5 days after infection.
A further test relates to Peronospora parasitica. Kind of test: In vivo test Peronospora parasitica (downy mildew on cabbage), protective. Particulars: evaluation 5 days after infection. On the procedure:
In vivo test Peronospora parasitica (downy mildew on cabbage) To prepare an appropriate active compound formulation, the active compound is mixed with acetone/Tween/DMSO and the mixture is diluted with water to the desired concentration. Cabbage plants are cultivated in 50/50 peat/pozzolan soil in small pots at 18-20° C. and sprayed at the cotyledon stage at the respective stated application rates to test for protective activity. Control plants were treated in the same manner, but using an aqueous solution without any active compounds. 24 hours after the spraying, the plants were sprayed with a spore suspension of Peronospora parasitica (50 000 spores/ml). The plants were placed in a cabin at 20° C. in a humid atmosphere for 5 days.

Test [1] relates to Mycosphaerella graminicola. Put plainly: In vivo test Mycosphaerella graminicola (wheat). Particulars: Mycosphaerella graminicola on wheat, evaluation 21-28 days after inoculation. Here is the method:
Wheat plants (cultivar: (Scipion) are cultivated in 50/50 peat pozzolan substrate at 12° C. and sprayed at the 1-leaf stage with the active compound preparation as given in Example A. After 24 hours, the plants are sprayed with a spore suspension of Mycosphaerella graminicola (500 000 spores/ml).

The test system of another test is Botrytis cinerea. Put plainly: In vivo test Botrytis cinerea (gray mold on cucumbers). The settings on record: Botrytis cinerea on cucumber, evaluation 5-7 days after infection. Here is the method: Cucumber plants (Vert petit de Paris) are cultivated in 50/50 peat pozzolan substrate at 20-25° C. and sprayed at the Z16 stage with the active compound preparation given in Example 1. After 24 hours, the upper sides of the leaves of the plants are sprayed with a spore suspension of Botrytis cinerea (150 000 spores/ml). The spores of a 15-day old culture are collected and suspended in a nutrient solution consisting of • 20 g/l of gelatin; • 50 g/l of D-fructose; • 2 g/l of NH4NO3; • 1 g/L of KH2PO4. The inoculated cucumber plants are placed at 15-11° C. (day/night) and at 80% relative atmospheric humidity for 5-7 days.

The next test concerns Alternaria brassicae. Put plainly: In vivo test Alternaria brassicae (salad radish). The settings on record: Alternaria brassicae on salad radish, application rate not given, evaluation 6-7 days after inoculation. Also on record: concentration or dose not given beside the values. Here is the method:
Salad radish (cultivar Pernot) are cultivated in 50/50 peat pozzolan substrate at 18-20° C. and sprayed at the cotyledon stage with the active compound preparation given above. After 24 hours, the plants are sprayed with a spore suspension of Alternaria brassicae (40 000 spores/cm3). The inoculated plants are placed at 18° C. and in a humid atmosphere for 6-7 days. […] At an application rate of g/ha, the following efficacies are found for the following compounds.

Another test relates to Leptosphaeria nodorum. Put plainly: In vivo test Leptosphaeria nodorum (wheat). The settings on record: Leptosphaeria nodorum on wheat, application rate 1200 g/ha, evaluation 15-17 days after inoculation. On the procedure:
Wheat plants (cultivar: (Scipion) are cultivated in 50/50 peat pozzolan substrate at 12° C. and sprayed at the 1-leaf stage with the active compound preparation as given in Example A. After 24 hours, the plants are sprayed with a spore suspension of Leptosphaeria nodorum (250 000 spores/ml).

In the case of `CCn1cc(CNC(=O)C2(C)CC(c3cc(F)cc(Cl)c3)=NO2)c(C)n1` (stereo not drawn) [Example 1.197], the “Activity [%] (efficacy)” value in the test with Sphaerotheca fuliginea (application rate 1200 g/ha), in the test on Phytophthora infestans and with Peronospora parasitica (application rate 1200 g/ha) was 100% in each case.

In the case of `CCn1cc(CNC(=O)C2(C)CC(c3cc(Cl)cc(Cl)c3)=NO2)c(C)n1` (stereo not drawn) [Example 1.222], the “Activity [%] (efficacy)” value in test [1] (application rate 1200 g/ha) is 96%; in the test on Phytophthora infestans it was 100%; in the test on Peronospora parasitica (application rate 500 g/ha), 100%.

Turning to `CCn1cc(CNC(=O)C2(CC)CC(c3cc(Cl)cc(Cl)c3)=NO2)cn1` (stereo not drawn) [Example 2.136], the “Activity [%] (efficacy)” value in test [1] (application rate 1200 g/ha) is given as 88%; in the test with Phytophthora infestans, 90%; with Peronospora parasitica (application rate 1200 g/ha), 100%.

As for `CC(C)NC(=O)C1(C)CC(c2cc(Cl)cc(Cl)c2)=NO1` (stereo not drawn) [Example 6.165], the “Activity [%] (efficacy)” value in test [1] (application rate 500 g/ha) is recorded as 100%; with Peronospora parasitica (application rate 500 g/ha), 95%; in the test on Botrytis cinerea (application rate 500 g/ha), 93%; with Alternaria brassicae, 95%.

Turning to `CC(C)NC(=O)C1(C)CC(c2cc(Cl)cc(OCC(F)(F)F)c2)=NO1` (stereo not drawn) [Example 6.193], the entries for the “Activity [%] (efficacy)” value (in the test on Sphaerotheca fuliginea (application rate 500 g/ha); in test [1] (application rate 500 g/ha)) were 85% and 95%, respectively.

For `CCC1(C(=O)NCC(F)(F)F)CC(c2cc(Cl)cc(Cl)c2)=NO1` (stereo not drawn) [Example 7.359], the “Activity [%] (efficacy)” value in test [1] (application rate 500 g/ha) is reported as 100%; in the test with Alternaria brassicae it was 86%.

As to `CCCn1cc(CNC(=O)C2(C)CC(c3cc(Cl)cc(Cl)c3)=NO2)c(C)n1` (stereo not drawn) [Example 1.374], the “Activity [%] (efficacy)” value is reported as 99% in the test on Sphaerotheca fuliginea (application rate 1200 g/ha), 100% with Phytophthora infestans, 100% in the test on Peronospora parasitica (application rate 1200 g/ha) and 98% with Botrytis cinerea (application rate 1200 g/ha).

Turning to `CCC(C)NC(=O)C1(C)CC(c2cc(Cl)cc(Cl)c2)=NO1` (mixture of isomers) [Example 6.217], the “Activity [%] (efficacy)” value was 100% in the test with Peronospora parasitica (application rate 1200 g/ha), 100% with Botrytis cinerea (application rate 1200 g/ha) and 81% in the test on Alternaria brassicae.

On to `CC1(C(=O)NCC(F)(F)F)CC(c2cc(Cl)cc(Cl)c2)=NO1` (stereo not drawn) [Example 6.377], for which the figures for the “Activity [%] (efficacy)” value (in test [1] (application rate 500 g/ha); with Alternaria brassicae) were 100% and 77%, respectively.

With `CCn1cc(CNC(=O)C2(C)CC(c3cc(C)cc(C)c3)=NO2)c(C)n1` (stereo not drawn) [Example 1.194], the “Activity [%] (efficacy)” value amounted to 88% in test [1] (application rate 1200 g/ha), 100% in the test with Phytophthora infestans, 100% in the test on Peronospora parasitica (application rate 1200 g/ha) and 95% with Botrytis cinerea (application rate 1200 g/ha).

Turning to `Cc1cc(CNC(=O)C2(C)CC(c3cc(Cl)cc(Cl)c3)=NO2)n(C)n1` (stereo not drawn) [Example 1.122], the “Activity [%] (efficacy)” value in the test on Sphaerotheca fuliginea (application rate 500 g/ha) is given as 72%; in test [1] (application rate 500 g/ha), 75%; in the test on Peronospora parasitica (application rate 500 g/ha), 100%.

As for `COCCCCNC(=O)C1(C)CC(c2cc(Cl)cc(Cl)c2)=NO1` (stereo not drawn) [Example 6.006], the “Activity [%] (efficacy)” value amounted to 70% in the test with Phytophthora infestans, 100% in the test with Peronospora parasitica (application rate 1200 g/ha) and 100% in the test with Leptosphaeria nodorum.

With `CC(C)(C)NC(=O)C1(C)CC(c2cc(Cl)cc(Cl)c2)=NO1` (stereo not drawn) [Example 6.117, N-tert-butyl-3-(3,5-dichlorophenyl)-5-methyl-4,5-dihydro-1,2-oxazole-5-carboxamide], the “Activity [%] (efficacy)” value is reported as 91% in test [1] (application rate 500 g/ha), 92% in the test on Peronospora parasitica (application rate 500 g/ha) and 73% with Alternaria brassicae.

Take `C#CC(C)NC(=O)C1(C)CC(c2cc(Cl)cc(Cl)c2)=NO1` (single isomer, unassigned) [Example 6.216]: the “Activity [%] (efficacy)” value in the test with Peronospora parasitica (application rate 500 g/ha) is listed as 75%; in the test on Alternaria brassicae, 82%.

`CCn1cc(CNC(=O)C2(C)CC(c3cccc(Cl)c3)=NO2)c(C)n1` (stereo not drawn) [Example 1.195]: the “Activity [%] (efficacy)” value in test [1] (application rate 500 g/ha) is recorded as 79%; in the test on Phytophthora infestans, 100%; with Peronospora parasitica (application rate 1200 g/ha), 100%.

As for `CC(C)NC(=O)C1(C)CC(c2cccc(N)c2)=NO1` (stereo not drawn) [Example 6.183], the “Activity [%] (efficacy)” value in the test on Sphaerotheca fuliginea (application rate 500 g/ha) was 98%.

For the compound `CCn1cc(CNC(=O)C2(C3CC3)CC(c3cc(Cl)cc(Cl)c3)=NO2)c(C)n1` (stereo not drawn) [Example 5.018], the “Activity [%] (efficacy)” value in test [1] (application rate 1200 g/ha) turned out to be 88%; with Phytophthora infestans, 75%; with Peronospora parasitica (application rate 500 g/ha), 100%.

For the compound `CC1(C(=O)NCC2CC2)CC(c2cc(Cl)cc(Cl)c2)=NO1` (stereo not drawn) [Example 6.431], the “Activity [%] (efficacy)” value in test [1] (application rate 500 g/ha) amounted to 100%; with Peronospora parasitica (application rate 500 g/ha), 71%; with Alternaria brassicae, 77%.

As to `CC(C)NC(=O)C1(C)CC(c2cc(Cl)cc(C(F)(F)F)c2)=NO1` (stereo not drawn) [Example 6.188], the “Activity [%] (efficacy)” value in test [1] (application rate 500 g/ha) was 100%; in the test with Botrytis cinerea (application rate 500 g/ha) it was 86%; in the test on Alternaria brassicae, 73%.

As for `Cc1c(NC(=O)C2(C)CC(c3cc(F)cc(F)c3)=NO2)cnn1C` (stereo not drawn) [Example 1.007], the “Activity [%] (efficacy)” value amounted to 75% in the test with Sphaerotheca fuliginea (application rate 500 g/ha) and 73% in test [1] (application rate 500 g/ha).

On to `CC1(C(=O)NC2CC2)CC(c2cc(Cl)cc(Br)c2)=NO1` (stereo not drawn) [Example 6.064], for which the entries for the “Activity [%] (efficacy)” value (in test [1] (application rate 500 g/ha); in the test on Alternaria brassicae) were 100% and 91%, respectively.

For the compound `Cn1cc(CNC(=O)C2(C)CC(c3cc(Cl)cc(Cl)c3)=NO2)cn1` (stereo not drawn) [Example 1.285], the “Activity [%] (efficacy)” value in the test with Sphaerotheca fuliginea (application rate 500 g/ha) is on record as 89%; in test [1] (application rate 500 g/ha), 75%; in the test on Peronospora parasitica (application rate 500 g/ha), 100%.

Take `CC1(C(=O)NC2CC2)CC(c2cc(Cl)cc(Cl)c2)=NO1` (stereo not drawn) [Example 6.054]: the “Activity [%] (efficacy)” value in test [1] (application rate 500 g/ha) is 100%; in the test with Alternaria brassicae, 94%.
